Experimental data: patent US9663460B2, “Sulfur derivatives as chemokine receptor modulators” (ALLERGAN, INC., priority 2010, dated 2017)

Molecular target: CCR2 (Homo sapiens (Human), UniProt P41597)
Experiment: Calcium activity assayed on the FLIPR Tetra in HEK-Gqi5 cells stably expressing CCR2
Format: cell-based
Conditions: FLIPR Tetra calcium assay
Protocol: HEK-Gqi5 cells stably expressing CCR2 were cultured in (DMEM high glucose, 10% FBS, 1% PSA, 400 μg/ml geneticin and 50 μg/ml hygromycin. Appropriate positive control chemokines (MCP-1, MIP1A or RANTES) was used as the positive control agonist for screening compound-induced calcium activity assayed on the FLIPR^Tetra. The drug plates were prepared in 384-well microplates using the EP3 and the MuItiPROBE robotic liquid handling systems. Compounds were synthesized and tested for CCR^2 activity.

Sequence of CCR2 (P41597 whole entry, species assumed): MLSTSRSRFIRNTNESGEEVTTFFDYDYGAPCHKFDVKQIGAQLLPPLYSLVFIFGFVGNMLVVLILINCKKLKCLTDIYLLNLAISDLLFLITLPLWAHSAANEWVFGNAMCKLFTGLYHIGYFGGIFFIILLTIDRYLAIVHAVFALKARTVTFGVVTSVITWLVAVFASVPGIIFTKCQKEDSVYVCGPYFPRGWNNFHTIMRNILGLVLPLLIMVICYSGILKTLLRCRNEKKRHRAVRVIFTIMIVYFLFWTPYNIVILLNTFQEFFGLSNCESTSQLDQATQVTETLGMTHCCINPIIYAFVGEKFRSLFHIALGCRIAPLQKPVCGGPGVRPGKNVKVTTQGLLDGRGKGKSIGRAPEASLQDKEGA

Row | CCR2 % ANTAGONISM [%] | IC50 [nM] | SMILES
1 | 85 | 509 | O=[N+]([O-])c1cccc([S+]([O-])c2ccc(Cl)cc2NS(=O)(=O)c2ccc(Cl)c(C(F)(F)F)c2)c1 (centres unmarked)
2 | 100 | 268 | CN(C)C(=O)C[S+]([O-])c1ccc(Cl)cc1NS(=O)(=O)c1ccc(Cl)c(C(F)(F)F)c1 (centres unmarked) [2-{[4-chloro-2-({[4-chloro-3-(trifluoromethyl)phenyl]sulfonyl}amino)phenyl]sulfinyl}-N,N-dimethylacetamide]
3 | 91 | 329 | CNC(=O)C[S+]([O-])c1ccc(Cl)cc1NS(=O)(=O)c1ccc(Cl)c(C(F)(F)F)c1 (centres unmarked) [2-{[4-chloro-2-({[4-chloro-3-(trifluoromethyl)phenyl]sulfonyl}amino)phenyl]sulfinyl}-N-methylacetamide]
4 | 98 | 462 | CN(C)C(=O)CS(=O)(=O)c1ccc(Cl)cc1NS(=O)(=O)c1ccc(Cl)c(C(F)(F)F)c1 [2-{[4-chloro-2-({[4-chloro-3-(trifluoromethyl)phenyl]sulfonyl}amino)phenyl]sulfonyl}-N,N-dimethylacetamide]
5 | 96 | 469 | CNC(=O)CS(=O)(=O)c1ccc(Cl)cc1NS(=O)(=O)c1ccc(Cl)c(C(F)(F)F)c1 [2-{[4-chloro-2-({[4-chloro-3-(trifluoromethyl)phenyl]sulfonyl}amino)phenyl]sulfonyl}-N-methylacetamide]
6 | 92 | 118 | CN(C)C(=O)CSc1ccc(Cl)cc1NS(=O)(=O)c1ccc(Cl)c(C(F)(F)F)c1 [2-{[4-chloro-2-({[4-chloro-3-(trifluoromethyl)phenyl]sulfonyl}amino)phenyl]thio}-N,N-dimethylacetamide]
7 | 87 | 44 | C[S+]([O-])c1ccc(Cl)cc1NS(=O)(=O)c1ccc(Cl)c(Cl)c1 (centres unmarked) [3,4-dichloro-N-[5-chloro-2-(methylsulfinyl)phenyl]benzenesulfonamide]
8 | 104 | 160 | CN(C)C(=O)CC[S+]([O-])c1ccc(Cl)cc1NS(=O)(=O)c1cc2ccccc2o1 (centres unmarked) [3-({2-[(1-benzofuran-2-ylsulfonyl)amino]-4-chlorophenyl}sulfinyl)-N,N-dimethylpropanamide]
9 | 99 | 76 | CN(C)C(=O)CCS(=O)(=O)c1ccc(Cl)cc1NS(=O)(=O)c1cc2ccccc2o1 [3-({2-[(1-benzofuran-2-ylsulfonyl)amino]-4-chlorophenyl}sulfonyl)-N,N-dimethylpropanamide]
10 | 100 | 146 | CN(C)C(=O)CCSc1ccc(Cl)cc1NS(=O)(=O)c1cc2ccccc2o1 [3-({2-[(1-benzofuran-2-ylsulfonyl)amino]-4-chlorophenyl}thio)-N,N-dimethylpropanamide]
11 | 93 | 1480 | CN(C)C(=O)CC[S+]([O-])c1ccc(Cl)cc1NS(=O)(=O)c1ccc(F)cc1F (centres unmarked) [3-[(4-chloro-2-{[(2,4-difluorophenyl)sulfonyl]amino}phenyl)sulfinyl]-N,N-dimethylpropanamide]
12 | 89 | 1580 | CN(C)C(=O)CCS(=O)(=O)c1ccc(Cl)cc1NS(=O)(=O)c1ccc(F)cc1F [3-[(4-chloro-2-{[(2,4-difluorophenyl)sulfonyl]amino}phenyl)sulfonyl]-N,N-dimethylpropanamide]
13 | 43 | 2150 | CN(C)C(=O)CCSc1ccc(Cl)cc1NS(=O)(=O)c1ccc(F)cc1F [3-[(4-chloro-2-{[(2,4-difluorophenyl)sulfonyl]amino}phenyl)thio]-N,N-dimethylpropanamide]
14 | 99 | 221 | CN(C)C(=O)CC[S+]([O-])c1ccc(Cl)cc1NS(=O)(=O)c1ccc(Cl)cc1F (centres unmarked) [3-[(4-chloro-2-{[(4-chloro-2-fluorophenyl)sulfonyl]amino}phenyl)sulfinyl]-N,N-dimethylpropanamide]
15 | 97 | 211 | CN(C)C(=O)CCS(=O)(=O)c1ccc(Cl)cc1NS(=O)(=O)c1ccc(Cl)cc1F [3-[(4-chloro-2-{[(4-chloro-2-fluorophenyl)sulfonyl]amino}phenyl)sulfonyl]-N,N-dimethylpropanamide]
16 | 78 | 771 | CN(C)C(=O)CCSc1ccc(Cl)cc1NS(=O)(=O)c1ccc(Cl)cc1F [3-[(4-chloro-2-{[(4-chloro-2-fluorophenyl)sulfonyl]amino}phenyl)thio]-N,N-dimethylpropanamide]
17 | 101 | 61 | C[S+]([O-])c1ccc(Cl)cc1NS(=O)(=O)c1cccc(Cl)c1F (centres unmarked) [3-chloro-N-[5-chloro-2-(methylsulfinyl)phenyl]-2-fluorobenzenesulfonamide]
18 | 101 | 116 | CS(=O)(=O)c1ccc(Cl)cc1NS(=O)(=O)c1cccc(Cl)c1F [3-chloro-N-[5-chloro-2-(methylsulfonyl)phenyl]-2-fluorobenzenesulfonamide]

Row | CCR2 % ANTAGONISM [%] | IC50 [nM] | SMILES
19 | 94 | 1920 | CSc1ccc(Cl)cc1NS(=O)(=O)c1cccc(Cl)c1F [3-chloro-N-[5-chloro-2-(methylthio)phenyl]-2-fluorobenzenesulfonamide]
20 | 89 | 96 | CN(C)C(=O)CC[S+]([O-])c1ccc(Cl)cc1NS(=O)(=O)c1ccc(Cl)c(C(F)(F)F)c1 (centres unmarked) [3-{[4-chloro-2-({[4-chloro-3-(trifluoromethyl)phenyl]sulfonyl}amino)phenyl]sulfinyl}-N,N-dimethylpropanamide]
21 | 93 | 1790 | CC(C)NC(=O)CC[S+]([O-])c1ccc(Cl)cc1NS(=O)(=O)c1ccc(Cl)c(C(F)(F)F)c1 (centres unmarked) [3-{[4-chloro-2-({[4-chloro-3-(trifluoromethyl)phenyl]sulfonyl}amino)phenyl]sulfinyl}-N-isopropylpropanamide]
22 | 99 | 797 | NC(=O)CC[S+]([O-])c1ccc(Cl)cc1NS(=O)(=O)c1ccc(Cl)c(C(F)(F)F)c1 (centres unmarked) [3-{[4-chloro-2-({[4-chloro-3-(trifluoromethyl)phenyl]sulfonyl}amino)phenyl]sulfinyl}propanamide]
23 | 93 | 217 | CN(C)C(=O)CCS(=O)(=O)c1ccc(Cl)cc1NS(=O)(=O)c1ccc(Cl)c(C(F)(F)F)c1 [3-{[4-chloro-2-({[4-chloro-3-(trifluoromethyl)phenyl]sulfonyl}amino)phenyl]sulfonyl}-N,N-dimethylpropanamide]
24 | 80 | 506 | CN(C)C(=O)CCSc1ccc(Cl)cc1NS(=O)(=O)c1ccc(Cl)c(C(F)(F)F)c1 [3-{[4-chloro-2-({[4-chloro-3-(trifluoromethyl)phenyl]sulfonyl}amino)phenyl]thio}-N,N-dimethylpropanamide]
25 | 59 | 1030 | CC(C)NC(=O)CCSc1ccc(Cl)cc1NS(=O)(=O)c1ccc(Cl)c(C(F)(F)F)c1 [3-{[4-chloro-2-({[4-chloro-3-(trifluoromethyl)phenyl]sulfonyl}amino)phenyl]thio}-N-isopropylpropanamide]
26 | 54 | – | CN(C)C(=O)CCC[S+]([O-])c1ccc(Cl)cc1NS(=O)(=O)c1cc2ccccc2o1 (centres unmarked) [4-({2-[(1-benzofuran-2-ylsulfonyl)amino]-4-chlorophenyl}sulfinyl)-N,N-dimethylbutanamide]
27 | 98 | 1000 | CN(C)C(=O)CCCS(=O)(=O)c1ccc(Cl)cc1NS(=O)(=O)c1cc2ccccc2o1 [4-({2-[(1-benzofuran-2-ylsulfonyl)amino]-4-chlorophenyl}sulfonyl)-N,N-dimethylbutanamide]
28 | 94 | 116 | C[S+]([O-])c1ccc(Cl)cc1NS(=O)(=O)c1ccc(Br)cc1 (centres unmarked) [4-bromo-N-[5-chloro-2-(methylsulfinyl)phenyl]benzenesulfonamide]
29 | 84 | 403 | CS(=O)(=O)c1ccc(Cl)cc1NS(=O)(=O)c1ccc(Br)cc1 [4-bromo-N-[5-chloro-2-(methylsulfonyl)phenyl]benzenesulfonamide]
30 | 76 | 1330 | CSc1ccc(Cl)cc1NS(=O)(=O)c1ccc(Br)cc1 [4-bromo-N-[5-chloro-2-(methylthio)phenyl]benzenesulfonamide]
31 | 78 | 50 | CC[S+]([O-])c1ccc(Cl)cc1NS(=O)(=O)c1ccc(Cl)c(C(F)(F)F)c1 (centres unmarked) [4-chloro-N-[5-chloro-2-(ethylsulfinyl)phenyl]-3-(trifluoromethyl)benzenesulfonamide]
32 | 90 | 88 | CCS(=O)(=O)c1ccc(Cl)cc1NS(=O)(=O)c1ccc(Cl)c(C(F)(F)F)c1 [4-chloro-N-[5-chloro-2-(ethylsulfonyl)phenyl]-3-(trifluoromethyl)benzenesulfonamide]
33 | 81 | 193 | CCSc1ccc(Cl)cc1NS(=O)(=O)c1ccc(Cl)c(C(F)(F)F)c1 [4-chloro-N-[5-chloro-2-(ethylthio)phenyl]-3-(trifluoromethyl)benzenesulfonamide]
34 | 72 | 379 | CC(C)Sc1ccc(Cl)cc1NS(=O)(=O)c1ccc(Cl)c(C(F)(F)F)c1 [4-chloro-N-[5-chloro-2-(isopropylthio)phenyl]-3-(trifluoromethyl)benzenesulfonamide]
35 | 103 | 85 | C[S+]([O-])c1ccc(Cl)cc1NS(=O)(=O)c1ccc(Cl)cc1F (centres unmarked) [4-chloro-N-[5-chloro-2-(methylsulfinyl)phenyl]-2-fluorobenzenesulfonamide]
36 | 78 | 14 | C[S+]([O-])c1ccc(Cl)cc1NS(=O)(=O)c1ccc(Cl)c(C(F)(F)F)c1 (centres unmarked) [4-chloro-N-[5-chloro-2-(methylsulfinyl)phenyl]-3-(trifluoromethyl)benzenesulfonamide]
